Reference: PubChem BioAssay AID1963450 (Molecular Pharmacology Branch, DTP, NCI, 2024)

Tested on: 556581-035-R-J1-PDC complex spheroid growth
Test: Anticancer human tumor 556581-035-R-J1-PDC patient-derived ovarian carcinoma cell line growth inhibition [Asc]
Details: for IC50: curve of first compound; for viability, T/C: stronger effect = lower value
Summary of the method: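 Complex spheroids combining tumor cells with HUVEC endothelial cells and human MSCs, at 37 degrees C, 5% CO2; agents tested alone or combined, half-log dilutions from at or near clinical Cmax, or 10 microM if Cmax unknown.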

[1] = second compound 0.1 µM, first compound 0.0316 µM
[2] = second compound 0.1 µM, first compound 0.1 µM
[3] = second compound 0.1 µM, first compound 0.316 µM
[4] = second compound 0.1 µM, first compound 1 µM
[5] = second compound 0.1 µM, first compound 3.16 µM
[6] = second compound 0.1 µM, first compound 10 µM
[7] = second compound 0.316 µM, first compound 0.0316 µM
[8] = second compound 0.316 µM, first compound 0.1 µM
[9] = second compound 0.316 µM, first compound 0.316 µM
[10] = second compound 0.316 µM, first compound 1 µM
[11] = second compound 0.316 µM, first compound 3.16 µM
[12] = second compound 0.316 µM, first compound 10 µM
[13] = second compound 1 µM, first compound 0.0316 µM
[14] = second compound 1 µM, first compound 0.1 µM
[15] = second compound 1 µM, first compound 0.316 µM
[16] = second compound 1 µM, first compound 1 µM
[17] = second compound 1 µM, first compound 3.16 µM
[18] = second compound 1 µM, first compound 10 µM
[19] = second compound 3.16 µM, first compound 0.0316 µM
[20] = second compound 3.16 µM, first compound 0.1 µM
[21] = second compound 3.16 µM, first compound 0.316 µM
[22] = second compound 3.16 µM, first compound 1 µM
[23] = second compound 3.16 µM, first compound 3.16 µM
[24] = second compound 3.16 µM, first compound 10 µM
[25] = second compound 10 µM, first compound 0.0316 µM
[26] = second compound 10 µM, first compound 0.1 µM
[27] = second compound 10 µM, first compound 0.316 µM
[28] = second compound 10 µM, first compound 1 µM
[29] = second compound 10 µM, first compound 3.16 µM
[30] = second compound 10 µM, first compound 10 µM
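Also: spheroids exposed to agents for 7 days before viability read.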

Work on C=C(F)C(=O)N1CCN(c2nc(OCC3CCCN3C)nc3c2CCN(c2cccc4cccc(Cl)c24)C3)CC1CC#N (stereo not given) + Cc1c(S(C)(=O)=O)c(-c2cc(F)cc(N3CCN(c4ccc(NS(=O)(=O)c5ccc(NC(CCN6CCC(C(=O)OCCCP(=O)(O)O)CC6)CSc6ccccc6)c(S(=O)(=O)C(F)(F)F)c5)cc4)CC3)c2)c(-c2ccc(Cl)cc2)n1C(C)C yielded an IC50 (second compound 0.1 µM) of 2110 nM, an IC50 (second compound 0.316 µM) of 1550 nM and an IC50 (second compound 1 µM) of 1270 nM. The IC50 (second compound 3.16 µM) was 1010 nM, the IC50 (second compound 10 µM) was 1010 nM and the viability, T/C [1] was 80.6%. For the same compound, the viability, T/C [2] was 87.7%, the viability, T/C [3] was 79.1% and the viability, T/C [4] was 76.9%. The viability, T/C [5] was 35.4%, the viability, T/C [6] was 30.3% and the viability, T/C [7] was 69.3%. The viability, T/C [8] was 86.7%, the viability, T/C [9] was 87.8% and the viability, T/C [10] was 68.6%. It also gave a viability, T/C [11] of 18.2%, a viability, T/C [12] of 0.26% and a viability, T/C [13] of 73.7%. It also gave a viability, T/C [14] of 71.8%, a viability, T/C [15] of 64.9% and a viability, T/C [16] of 56.8%. The viability, T/C [17] was 23.5%, the viability, T/C [18] was 25.7% and the viability, T/C [19] was 63.1%. The viability, T/C [20] was 61.5%, the viability, T/C [21] was 67.7% and the viability, T/C [22] was 50.3%. For the same compound, the viability, T/C [23] was 22.1%, the viability, T/C [24] was 27% and the viability, T/C [25] was 59.6%. It also gave a viability, T/C [26] of 54.5%, a viability, T/C [27] of 57.8% and a viability, T/C [28] of 50.4%. It also gave a viability, T/C [29] of 8.45% and a viability, T/C [30] of 0.49%.

In the case of C=CC(=O)N1CCN(c2nc(=O)n(-c3c(C)ccnc3C(C)C)c3nc(-c4c(O)cccc4F)c(F)cc23)C(C)C1 (stereo not given) + Cc1c(S(C)(=O)=O)c(-c2cc(F)cc(N3CCN(c4ccc(NS(=O)(=O)c5ccc(NC(CCN6CCC(C(=O)OCCCP(=O)(O)O)CC6)CSc6ccccc6)c(S(=O)(=O)C(F)(F)F)c5)cc4)CC3)c2)c(-c2ccc(Cl)cc2)n1C(C)C, the IC50 (second compound 0.1 µM) is reported as > 10000 nM, the IC50 (second compound 0.316 µM) is reported as > 10000 nM and the IC50 (second compound 1 µM) is reported as > 10000 nM. For the same compound, the IC50 (second compound 3.16 µM) was > 10000 nM, the IC50 (second compound 10 µM) was > 10000 nM and the viability, T/C [1] was 86.6%. For the same compound, the viability, T/C [2] was 83.6%, the viability, T/C [3] was 78.8% and the viability, T/C [4] was 89.6%. The viability, T/C [5] was 80.1%, the viability, T/C [6] was 57.9% and the viability, T/C [7] was 90.8%. For the same compound, the viability, T/C [8] was 98.3%, the viability, T/C [9] was 79.1% and the viability, T/C [10] was 80%. It also gave a viability, T/C [11] of 81.8%, a viability, T/C [12] of 64.9% and a viability, T/C [13] of 71.8%. For the same compound, the viability, T/C [14] was 71.6%, the viability, T/C [15] was 77.6% and the viability, T/C [16] was 71.5%. For the same compound, the viability, T/C [17] was 73.6%, the viability, T/C [18] was 58.9% and the viability, T/C [19] was 72.1%. For the same compound, the viability, T/C [20] was 78.1%, the viability, T/C [21] was 62.2% and the viability, T/C [22] was 72%. The viability, T/C [23] was 66.4%, the viability, T/C [24] was 56.8% and the viability, T/C [25] was 66.8%. For the same compound, the viability, T/C [26] was 59.5%, the viability, T/C [27] was 55.9% and the viability, T/C [28] was 69.5%. For the same compound, the viability, T/C [29] was 59.6% and the viability, T/C [30] was 46.4%.

In the case of CCN1C(C(=O)NC23CCC(C(=O)O)(CC2)CC3)C(c2cccc(Cl)c2F)C2(C(=O)Nc3cc(Cl)ccc32)C12CCCCC2 (stereo not given) + Cc1c(S(C)(=O)=O)c(-c2cc(F)cc(N3CCN(c4ccc(NS(=O)(=O)c5ccc(NC(CCN6CCC(C(=O)OCCCP(=O)(O)O)CC6)CSc6ccccc6)c(S(=O)(=O)C(F)(F)F)c5)cc4)CC3)c2)c(-c2ccc(Cl)cc2)n1C(C)C, the IC50 (second compound 0.1 µM) is reported as > 3000 nM, the IC50 (second compound 0.316 µM) is reported as > 3000 nM and the IC50 (second compound 1 µM) is reported as > 3000 nM. The IC50 (second compound 3.16 µM) was > 3000 nM, the IC50 (second compound 10 µM) was 812 nM and the viability, T/C (second compound 0.1 µM, first compound 0.00949 µM) was 80.2%. For the same compound, the viability, T/C (second compound 0.1 µM, first compound 0.03 µM) was 84.5%, the viability, T/C (second compound 0.1 µM, first compound 0.0949 µM) was 89.2% and the viability, T/C (second compound 0.1 µM, first compound 0.3 µM) was 81.3%. For the same compound, the viability, T/C (second compound 0.1 µM, first compound 0.949 µM) was 82%, the viability, T/C (second compound 0.1 µM, first compound 3 µM) was 75.8% and the viability, T/C (second compound 0.316 µM, first compound 0.00949 µM) was 82.2%. For the same compound, the viability, T/C (second compound 0.316 µM, first compound 0.03 µM) was 77.6%, the viability, T/C (second compound 0.316 µM, first compound 0.0949 µM) was 85.3% and the viability, T/C (second compound 0.316 µM, first compound 0.3 µM) was 68.3%. For the same compound, the viability, T/C (second compound 0.316 µM, first compound 0.949 µM) was 64%, the viability, T/C (second compound 0.316 µM, first compound 3 µM) was 66.4% and the viability, T/C (second compound 1 µM, first compound 0.00949 µM) was 87%. The viability, T/C (second compound 1 µM, first compound 0.03 µM) was 74.2%, the viability, T/C (second compound 1 µM, first compound 0.0949 µM) was 80.1% and the viability, T/C (second compound 1 µM, first compound 0.3 µM) was 78.1%. For the same compound, the viability, T/C (second compound 1 µM, first compound 0.949 µM) was 60.2%, the viability, T/C (second compound 1 µM, first compound 3 µM) was 52.1% and the viability, T/C (second compound 3.16 µM, first compound 0.00949 µM) was 65.8%. The viability, T/C (second compound 3.16 µM, first compound 0.03 µM) was 68.3%, the viability, T/C (second compound 3.16 µM, first compound 0.0949 µM) was 74.8% and the viability, T/C (second compound 3.16 µM, first compound 0.3 µM) was 69.4%. The viability, T/C (second compound 3.16 µM, first compound 0.949 µM) was 77.1%, the viability, T/C (second compound 3.16 µM, first compound 3 µM) was 47.2% and the viability, T/C (second compound 10 µM, first compound 0.00949 µM) was 60.2%. The viability, T/C (second compound 10 µM, first compound 0.03 µM) was 67.6%, the viability, T/C (second compound 10 µM, first compound 0.0949 µM) was 55.6% and the viability, T/C (second compound 10 µM, first compound 0.3 µM) was 58.7%. It also gave a viability, T/C (second compound 10 µM, first compound 0.949 µM) of 49% and a viability, T/C (second compound 10 µM, first compound 3 µM) of 30.8%.
